Results on 19 compounds are retold here after publication PMC6179041, “The insight of in vitro and in silico studies on cholinesterase inhibitors from the roots of Cimicifuga dahurica (Turcz.) Maxim” (Journal of Enzyme Inhibition and Medicinal Chemistry, 2018).

“Also recorded” adds a separate entry of the source. Like-named read-outs stand apart in the source and are kept apart here.

Usually IC50 stands for the point on the concentration scale where inhibition reaches its midpoint. A word on the Ki: it is a dissociation constant, usually derived from enzyme kinetics or from competition with a known ligand.

Assay [1] addresses T1, AChE (Electrophorus electricus, UniProt O42275).
T1 construct: purchased Sigma-Aldrich C3389
Nature of the assay: biochemical. It counts as biochemical. To be noted: for inhibition at 100 µM: read-out: AChE inhibitory activity at 100 μM (%).

Assay [2] addresses BuChE (Equus caballus, UniProt P81908). Put plainly: biochemical. It counts as biochemical. To be noted: for inhibition at 100 µM: read-out: BuChE inhibitory activity at 100 μM (%); for Binding mode (BuChE): Lineweaver-Burk plots.
[3] abbreviates: 100 μM compound, mean ± SEM, tested three times.
Setting [4] is: mean ± SEM, tested three times, read-out: AChE IC50.
[5] abbreviates: mean ± SEM, tested three times, read-out: BuChE IC50.
[6] abbreviates: secondary replot, read-out: Ki (μM) on BuChE.

T1 sequence (O42275 24-633): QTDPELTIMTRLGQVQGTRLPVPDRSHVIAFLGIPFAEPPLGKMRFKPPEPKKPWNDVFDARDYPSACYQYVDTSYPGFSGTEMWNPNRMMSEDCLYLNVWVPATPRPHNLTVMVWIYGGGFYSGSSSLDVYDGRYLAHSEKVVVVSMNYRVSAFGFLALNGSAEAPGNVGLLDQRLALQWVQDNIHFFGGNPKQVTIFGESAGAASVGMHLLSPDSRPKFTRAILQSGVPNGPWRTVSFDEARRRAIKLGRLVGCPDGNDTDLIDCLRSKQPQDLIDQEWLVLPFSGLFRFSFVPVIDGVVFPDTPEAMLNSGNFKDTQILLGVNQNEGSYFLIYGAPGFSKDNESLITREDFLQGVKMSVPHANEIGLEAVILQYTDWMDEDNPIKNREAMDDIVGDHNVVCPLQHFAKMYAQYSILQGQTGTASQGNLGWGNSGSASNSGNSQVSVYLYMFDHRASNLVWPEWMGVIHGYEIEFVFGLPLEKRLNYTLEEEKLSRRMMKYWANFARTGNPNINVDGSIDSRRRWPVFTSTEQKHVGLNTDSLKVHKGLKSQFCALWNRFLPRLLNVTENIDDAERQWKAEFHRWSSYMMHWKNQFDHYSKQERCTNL
Sequence of BuChE (P81908 whole entry): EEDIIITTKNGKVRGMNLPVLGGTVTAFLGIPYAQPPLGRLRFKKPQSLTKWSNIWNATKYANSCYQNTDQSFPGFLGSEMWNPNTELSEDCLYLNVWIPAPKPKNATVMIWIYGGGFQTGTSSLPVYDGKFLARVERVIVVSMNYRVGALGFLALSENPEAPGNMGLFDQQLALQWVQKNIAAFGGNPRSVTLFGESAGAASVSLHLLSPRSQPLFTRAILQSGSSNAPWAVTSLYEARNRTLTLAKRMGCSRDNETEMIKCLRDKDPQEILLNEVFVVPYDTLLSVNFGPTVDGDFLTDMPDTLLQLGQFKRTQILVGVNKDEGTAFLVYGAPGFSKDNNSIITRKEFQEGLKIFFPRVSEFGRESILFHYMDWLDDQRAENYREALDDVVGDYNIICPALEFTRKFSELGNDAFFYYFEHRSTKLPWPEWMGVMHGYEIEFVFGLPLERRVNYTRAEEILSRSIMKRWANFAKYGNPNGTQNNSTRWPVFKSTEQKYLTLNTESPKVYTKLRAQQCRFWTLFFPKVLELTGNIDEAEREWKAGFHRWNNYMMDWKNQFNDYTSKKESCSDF

As for `C=C(C)[C@H]1O[C@@]23O[C@@H]1C[C@@H](C)[C@@H]2[C@@]1(C)CC[C@@]24C[C@@]25CC[C@H](O)C(C)(C)[C@@H]5CC=C4[C@]1(C)[C@H]3O` [Compound 13, 25-anhydrocimigenol], the inhibition at 100 µM was determined as 42.8 ± 0.8% in assay [1] and 44.9 ± 1.1% in assay [2].
`CC(=O)OC(C)(C)C1OC23OC1CC(C)C2C1(C)CCC24CC25CCC(O)C(C)(C)C5CC=C4C1(C)C3O` (stereo not shown) [Compound 8, 25-O-acetyl-7,8-didehydrocimigenol] showed an IC50 in assay [1] of 69.5 ± 1.2 µM. The inhibition at 100 µM turned out to be 55.4 ± 2.6% in assay [1] and 18 ± 0.4% in assay [2].
Turning to `CC(=O)O[C@@H]([C@H]1C[C@@H](C)[C@H]2[C@@](O)(O1)[C@H](O)[C@@]1(C)C3=CC[C@H]4C(C)(C)[C@@H](O)CC[C@@]45C[C@@]35CC[C@]21C)C(C)(C)O` [Compound 6, 24-epi-24-O-acetyl-7,8-didehydroshengmanol], in assay [1], the half-inhibitory concentration (IC50) turned out to be 94.9 ± 3.5 µM and the inhibition at 100 µM turned out to be 53.7 ± 1.6%. In addition, in assay [2], the IC50 turned out to be 90.9 ± 6 µM and the inhibition at 100 µM worked out at 57.3 ± 0.3%.
`C[C@@H]1C[C@H]2O[C@]3(O[C@@H]2C(C)(C)O)[C@H]1[C@@]1(C)CC[C@@]24C[C@@]25CC[C@H](O)C(C)(C)[C@@H]5CC=C4[C@]1(C)[C@H]3O` [Compound 5, 7,8-didehydrocimigenol]: the inhibition at 100 µM in assay [1] was 43.1 ± 5.6%. Moreover, in assay [2], the IC50 was 60.9 ± 1.2 µM and the inhibition at 100 µM was 53.6 ± 0.9%.
For the compound `CC(C)=CC=C1C(=O)N(C)c2ccccc21` [Compound 3, (E)-3‐(3′-methyl-2′-butenylidene)-1-methyl-2-indolinone], the figures for the inhibition at 100 µM in assay [1] (setting [3]) and in assay [2] (setting [3]) were 53.8 ± 0.1% and 88.7 ± 1.3%, respectively. The IC50 in assay [1] (setting [4]) was found to be 95.8 ± 5.1 µM; in assay [2] (setting [5]), 13.8 ± 1.2 µM. The “Binding mode (BuChE)” value in assay [2] is recorded as “noncompetitive mode; also recorded: Non-competitive type (BuChE)”. In assay [2] (setting [6]), the Ki was determined as 4.9 ± 2.1 µM.
As to `CC(=O)OC(C)(C)C1OC23OC1CC(C)C2C1(C)CCC24CC25CCC(OC2OCC(O)C(O)C2O)C(C)(C)C5CC=C4C1(C)C3O` [Compound 14, 25-O-acetyl-7,8-didehydrocimigenol 3-O-β-D-xylopyranoside], the inhibition at 100 µM in assay [1] was found to be 24.9 ± 6.2%. Further, in assay [2], the IC50 was 22.6 ± 0.4 µM; the affinity, expressed as Ki, was 10.7 ± 1.3 µM; the “Binding mode (BuChE)” value is given as “competing with substrate; also recorded: Competitive type (BuChE)”; the inhibition at 100 µM came to 55 ± 0.7%.
With `COc1ccc(/C=C/C(=O)OCC(=O)c2ccc(O)c(O)c2)cc1O` [Compound 1, cimiciphenone], the inhibition at 100 µM in assay [1] (setting [3]) was 65.4 ± 0.9%; in assay [2] (setting [3]), 13.6 ± 0.7%. Further, the “Binding mode (AChE)” value in assay [1] (Lineweaver-Burk plots) is reported as “competitive inhibitor; also recorded: Competitive type (AChE)”. Besides, in assay [1] (setting [4]), the IC50 was found to be 16.7 ± 1.9 µM. Besides, the Ki in assay [1] (secondary replot) amounted to 16.2 ± 0.9 µM.
On to `CC1CC2OC3(OC2C(C)(C)O)C1C1(C)CCC24CC25CCC(O)C(C)(C)C5CC=C4C1(C)C3O` (stereo not drawn) [Compound 10, 24-epi-7,8-didehydrocimigenol], for which the inhibition at 100 µM in assay [1] was determined as 31.8 ± 0.5%; in assay [2] it was 41.1 ± 2.2%.
For the compound `C=C(C)[C@H]1O[C@@]23O[C@@H]1C[C@@H](C)[C@@H]2[C@@]1(C)CC[C@@]24C[C@@]25CC[C@H](O[C@@H]2OC[C@@H](O)[C@H](O)[C@H]2O)C(C)(C)[C@@H]5CCC4[C@]1(C)[C@H]3O` (stereo partly drawn) [Compound 15, 25-anhydrocimigenol-3-O-β-D-xylopyranoside], in assay [1], the inhibition at 100 µM was found to be 37.1 ± 0.5%. Moreover, in assay [2], the IC50 was found to be 33.3 ± 5 µM and the inhibition at 100 µM came out at 60.7 ± 0.6%.
As for `CC(=O)OC(C)(C)[C@H]1O[C@@]23O[C@@H]1C[C@@H](C)[C@@H]2[C@@]1(C)CC[C@@]24C[C@@]25CC[C@H](O)C(C)(C)[C@@H]5CC[C@H]4[C@]1(C)[C@H]3O` [Compound 11, 25-O-acetylcimigenol], the figures for the inhibition at 100 µM in assay [1] and in assay [2] were 15.8 ± 4.3% and 14 ± 2.6%, respectively.
As for `CC(=O)OC1C(OC2CCC34CC35CCC3(C)C6C(C)CC7OC6(OC7C(C)(C)O)C(O)C3(C)C5=CCC4C2(C)C)OCC(O)C1O` (stereo not shown) [Compound 18, cimiricaside A], the inhibition at 100 µM in assay [1] is 23.1 ± 6.8%. Further, in assay [2], 51 ± 0.5 µM corresponded to half-maximal inhibition (IC50) and the inhibition at 100 µM was found to be 54.4 ± 1.3%.
For `CC1CC2OC3(OC2C(C)(C)O)C1C1(C)CCC24CC25CCC(OC2OCC(O)C(O)C2O)C(C)(C)C5CC=C4C1(C)C3O` [Compound 16, 24-epi-7,8-didehydrocimigenol 3-O-β-D-xylopyranoside] the same measures were 19 ± 2.5%, 31 ± 5.5 µM and 62 ± 0.8%.
Regarding `COC(=O)/C=C/c1ccc(O)c(OC)c1` [Compound 2, ferulic acid methyl ester], the inhibition at 100 µM was found to be 58 ± 0.6% in assay [1] (setting [3]) and 62.3 ± 0.3% in assay [2] (setting [3]). The results for the IC50 in assay [1] (setting [4]) and in assay [2] (setting [5]) were 52.4 ± 3.7 µM and 37.1 ± 1.5 µM, respectively.
Consider `C=C(C)C1OC23OC1CC(C)C2C1(C)CCC24CC25CCC(OC2OCC(O)C(O)C2O)C(C)(C)C5CC=C4C1(C)C3O` [Compound 19, 7,8-didehydro-25-anhydrocimigenol-3-O-β-D-xylopyranoside], for which the inhibition at 100 µM was determined as 21.5 ± 1.7% in assay [1] and 38.5 ± 0.1% in assay [2].
On to `C=C(C)C1OC23OC1CC(C)C2C1(C)CCC24CC25CCC(O)C(C)(C)C5CC=C4C1(C)C3O` (stereo not shown) [Compound 9, 25-anhydro-7,8-didehydrocimigenol], for which the inhibition at 100 µM in assay [1] amounted to 48.6 ± 0.6%. In assay [2], the IC50 was 35.1 ± 1.2 µM and the inhibition at 100 µM stood at 51 ± 1.9%.
Turning to `CC(=O)O[C@@H]1C[C@@]23C[C@@]24CC[C@H](O)C(C)(C)[C@@H]4CC=C3[C@]2(C)C[C@@H]3O[C@]4(C[C@@H](C)[C@@H]3[C@@]12C)O[C@H](O)[C@@]1(C)O[C@@H]41` [Compound 7, 25-triepoxy-12β-acetoxy-3β,26-dihydroxy-9,19-cyclolanost-7-ene], the IC50 in assay [1] stood at 92.1 ± 2.2 µM. Further, the inhibition at 100 µM was 52 ± 0.1% in assay [1] and 41 ± 0.1% in assay [2].
For “3-O-β-D-xylopyranosyl-24S,25-dihydroxy-15-oxo-acta-(16R,23R)-16,23-monoxoside [Compound 17]”, the “AChE inhibitory activity at 100 μM (%)” value in assay [1] (setting [3]) turned out to be 47.1 ± 1.6%. Besides, the “BuChE inhibitory activity at 100 μM (%)” value in assay [2] (setting [3]) came to 55.4 ± 0.8%. Besides, in assay [2] (setting [5]), the IC50 was 84.1 ± 5.7 µM.
For the compound `CC(=O)O[C@H]([C@H]1C[C@@H](C)[C@H]2[C@@](O)(O1)[C@H](O)[C@@]1(C)C3=CC[C@H]4C(C)(C)[C@@H](O)CC[C@@]45C[C@@]35CC[C@]21C)C(C)(C)O` [Compound 12, 24-epi-24-O-acetyl-7,8-didehydroshengmanol], the inhibition at 100 µM in assay [1] came to 28 ± 4%; in assay [2] it was 18.6 ± 0.3%.
On to `CC(C)=CC=C1C(=O)Nc2ccccc21` [Compound 4, (E)-3‐(3′-methyl-2′-butenylidene)-2-indolinone], for which the inhibition at 100 µM in assay [1] (setting [3]) was determined as 61 ± 4.6%; in assay [2] (setting [3]) it was 93.1 ± 0.6%. Further, the values for the IC50 in assay [1] (setting [4]) and in assay [2] (setting [5]) were 48 ± 6.8 µM and 6.5 ± 2.5 µM, respectively. In addition, the “Binding mode (BuChE)” value in assay [2] was “noncompetitive mode; also recorded: Non-competitive type (BuChE)”. The Ki in assay [2] (setting [6]) is 3.5 ± 1.5 µM.
